Literature values as cited in patent US20170368079A1, “ANTI-INFLAMMATORY AND ANTIDIABETIC AGENTS” (priority 2016, published 2017).
Where two headings read alike, the source gives them in different places.

What was measured:
[1] = system: patients with type 2 diabetes
[2] = system: glucocorticoid metabolism; conditions: mice; pattern differs between liver and subcutaneous adipose tissue
[3] = system: glucocorticoid metabolism; conditions: humans; pattern differs between liver and subcutaneous adipose tissue
[4] = compared with placebo, in contrast to aspirin
platelet aggregation = conditions: unlike aspirin
prostaglandin synthesis = conditions: in vivo; compared with aspirin and indomethacin

## O=C(Oc1ccccc1C(=O)O)c1ccccc1O [salsalate, 2-(2-hydroxybenzoyl)oxybenzoic acid]
[1]
  C-reactive protein: lowers
  HbA1c levels: lowers
  adiponectin concentrations: increase
  blood glucose: lowers
  circulating insulin: increase
  free fatty acid: lowers
  glucose utilization: improve
  triglycerides: lowers
[2]
  glucocorticoid metabolism: alters glucocorticoid metabolism
[3]
  glucocorticoid metabolism: alters glucocorticoid metabolism
[4]
  fecal gastrointestinal blood loss: no greater fecal gastrointestinal blood loss than placebo
Platelet aggregation
  inhibition of platelet aggregation: does not inhibit platelet aggregation
Prostaglandin synthesis
  anti-inflammatory activity: equivalent to aspirin and indomethacin
